Data published in patent US20120196854A1, “PHARMACEUTICAL COMPOSITION COMPRISING AROMATIC HETEROCYCLIC COMPOUND” (Kyowa Hakko Kirin Co., Ltd., priority 2009, published 2012).

Legend:
[1] = test system: mdx mice; experiment: Myodegeneration in spontaneous muscular dystrophy model (mdx) mice; format: in vivo, mouse; details: in drinking water, about 30 mg/kg
Description: mdx Mice (C57BL/10ScSn-Dmd^mdx) were purchased in male and female pairs from Jackson Laboratories, and bred in-house for use. After weaned at 3 weeks old, male mdx mice were selected, which were subjected to the test from 4 weeks old. Compound 133 was dissolved in MEYLON 84 (registered trademark, 8.4% sodium bicarbonate injection, Otsuka) to prepare 12 mL of a 3 mg/mL solution thereof. This was added to and mixed with 188 mL of sterile tap water (final concentration of the compound: 180 μg/mL), and the mixture was administered by unrestricted intake (actual dose of the compound was about 30 mg/kg). […]
As evaluation of the diaphragm muscle, the degenerated and/or necrotic muscle area ratio of the diaphragm was determined. […] The thus prepared specimen was digitally shot at 20-fold magnification using a digital microscope (VHX-1000, KEYENCE, Osaka) and the images were recorded in TIFF format. Using the nature that degenerated and/or necrotic muscle absorbs EB and turns blue (J. Anat., 2002, 200, 69-79), the area of the diaphragm piece and the area of blue region showing the distribution of degenerated and/or necrotic muscle were determined with an image analyzer (LUZEX AP, Nireco, Tokyo). […]
For evaluation of the posterior crural muscle, the degenerated and/or necrotic muscle area ratio of the gastrocnemius muscle was determined. […]

[2] = test system: mouse model of asthma; experiment: Airway hyperresponsiveness and eosinophil infiltration in the airway in a mouse model of asthma; format: in vivo; details: 3 mg/kg orally once daily during antigen exposure, OVA-sensitized BALB/c mice
Description: The mouse model of asthma was prepared as follows. For experimental use, 6-week-old male BALB/c mice were purchased from Charles River Japan (Atsugi, Kanagawa). Equal amounts of a 0.5 mg/mL solution of ovalbumin in physiological saline and a 10 mg/mL suspension of aluminum hydroxide in physiological saline were mixed to give a sensitizing fluid. With well mixing of the sensitization fluid, 0.2 mL of the fluid was intraperitoneally administered to each mouse for sensitization. About 1 week after the initial sensitization, the same procedure was performed for additional sensitization. […]
The expression of airway hyperresponsiveness (increase of airway reactivity) was evaluated by measuring, under anesthesia, airway reactivity to methacholine (MCh: acetyl-β-methylcholine chloride, Cat. No. A-2251, Sigma-Aldrich) using a respiratory function analyzer [BioSystem XA; version 2.0.2.21 for Windows (registered trademark), preamplifier: MAX2215, body plethysmography box: PLY3011, pressure transducer: Validyne DP45-28, flaw transducer: Validyne DP45-14, Buxco Electronics, Troy, N.Y., USA]. […] As an indicator of airway reactivity, respiratory resistance (RL) values recorded every 5 seconds by the respiratory function analyzer were used. After fixing a mouse to the device and confirming the RL stability, the value after intravenous administration of a physiological saline solution was recorded first. […]

O=C(O)c1cc(-c2ccco2)nc2ccc3nn(-c4ccccc4)nc3c12 [Compound 133, 7-(furan-2-yl)-2-phenyl-2H-[1,2,3]triazolo[4,5-f]quinoline-9-carboxylic acid]
inhibition of degeneration and/or necrosis of the diaphragm [1]: 40% | inhibition of degeneration and/or necrosis of the gastrocnemius muscle [1]: 49% | inhibition of the expression of airway hyperresponsiveness [2]: 98% | inhibition of eosinophil infiltration in the airway ([2]; BAL fluid): 55%
